Values after ≈ are worked out from the molar mass of the structure shown. Read-outs that look alike come from different tables or passages of the source.
Experiments:
[1] = system: SARS-CoV-2 [hCoV-19/Egypt/NRC-03/2020]; assay: SARS-CoV-2 inhibitory assay (IC50 determination, crystal violet) in Vero E6 cells; format: cell-based
Description: The IC50 for each examined compound (3a–g) which is equivalent to the minimum concentration to inhibit the virus infectivity by 50% compared to the virus control was calculated. The full methodology was depicted in the Supplementary Data (SI3).
(§1) SI 2. MTT cytotoxicity assay.
(§2) The VERO-E6 cells were kept in 96 well-plates at 37°C in 5% CO2 for 24 h to be cultivated. The tested compounds were diluted with DMEM in HA plate in triplicates as mentioned before and then poured onto the prepared cells after washing twice by sterile 1x phosphate buffer saline (PBS). 24 h later, the cell monolayers were washed three times with sterile 1x PBS after removal of the supernatant followed by the addition of the MTT solution into each individual well (20 µl of 5 mg/ml stock solution) which was kept at 37°C for 4 h. The formed formazan crystals were dissolved using an acidified isopropanol (200 µl) and the absorbance of their solutions were recorded through a multi-well plate reader (λmax = 540 nm) against a reference wavelength (λmax= 620 nm). Finally, the cytotoxicity % of the tested compounds compared to the control cells (untreated cells) was calculated as follow:
(§3) % Cytotoxicity = (the absorbance of untreated cells − absorbance of treated cells) X 100 […]
(§4) SI 3. Inhibitory concentration 50 (IC50) determination.
(§5) The Vero-E6 cells (2.4×104) were kept overnight at 37°C in 5% CO2 inside 96-well tissue culture plates. 1x PBS solution was used to wash the cell monolayers for only one time which were then treated with different serial dilutions of the examined compounds together with a fixed dilution from the virus (hCoV-19/Egypt/NRC-03/2020 (Accession Number on GSAID: EPI_ISL_430820)) following TCID50 test and kept at RT for 1 h before starting incubation. Also, the cell monolayers were subjected to DMEM (100 μl) with different concentrations of the test samples and virus and left at 37°C for 72 h in a 5% CO2. Then, 4% paraformaldehyde (100 μl) was used for cell fixation (2 h) followed by the staining step with 0.1% crystal violet in distilled H2O (50 μl) at RT for 15 min. Absolute CH3OH (100 μl) was added to dissolve the crystal violet dye per well to measure the optical density of the produced color using Anthos Zenyth 200rt plate reader at 570 nm.1 The IC50 value for each tested compound which is corresponding to its minimum concentration required to reduce the virus infectivity by 50% in comparison to the virus control was calculated.

MTT cytotoxicity assay = format: cell-based; details: African green monkey, Vero E6 cells, read-out: cytotoxic concentration 50 (CC50)
Description: It was performed to calculate the newly synthesised candidates’ minimum concentrations that cause 50% toxicity to the cells (CC50). First, the newly synthesised derivatives were dissolved in ddH2O with 10% DMSO and then diluted with Dulbecco's Modified Eagle's Medium (DMEM) to the desired concentrations. The MTT assay method was performed with minor changes using VERO-E6 cells (ready for the virus propagation) to be applied in other experiments. The complete methodology was elucidated in the Supplementary Data (SI2).
as §1, §2, §3, §4, §5

SARS-CoV-2 Mpro = SARS-CoV-2 Mpro (Severe acute respiratory syndrome coronavirus 2, UniProt P0DTD1); assay: SARS-CoV-2 Mpro assay (3CL Protease Assay Kit); format: biochemical
From the text: The Mpro activity was investigated using the 3CL Protease Assay Kit. The applied protocol and methodology were depicted in the Supplementary Data (SI4). Herein, the present assay was established to assess the newly synthesised candidates (3a–g) inhibitory effects on the SARS-CoV-2 Mpro enzyme as a recommended mechanism of action.
SI 4. Methodology and protocol of 3CL Protease (SARS-CoV-2) assay.
The 3CL Protease Assay Kit is designed to measure 3CL Protease activity for screening and profiling applications, in a homogeneous assay with no time-consuming washing steps. The kit comes in a convenient 96-well format, with purified 3CL Protease, fluorogenic substrate, and 3CL Protease assay buffer for 100 enzyme reactions. 3CL inhibitor GC376 is also included as a positive control.
Add 0.5 M DTT to 3CL Protease Assay Buffer so final DTT concentration is 1 mM. For example, add 10 μl of 0.5 M DTT to 5 ml assay buffer. (DTT should be added just before use. Prepare only enough DTT-containing buffer as required for the assay. Store the remaining assay buffer at - […]
2) Thaw 3CL Protease on ice. Upon first thaw, briefly spin tube containing enzyme to recover the full content of the tube. Aliquot 3CL Protease into single use aliquots. Store remaining undiluted enzyme in aliquots at -80°C. Note: 3CL Protease enzyme is sensitive to freeze/thaw cycles.
3) Dilute 3CL Protease in Assay buffer (with 1 mM DTT) at 3-5 ng/μl (90-150 ng per reaction).
4) Add 30 μl diluted 3CL Protease enzyme solution to wells designated as “Positive Control”, “Inhibitor Control” and “Test Sample”. Add 30 μl Assay buffer (with 1 mM DTT) to the “Blank” wells.
Component Positive Test Sample Inhibitor Blank
Assay Buffer (with DTT) − − − 30 μl […]
Inhibitor Buffer (no inhibitor) 10 μl − − 10 μl […]
5) Dilute 50 μg GC376 in 200 μl water to obtain a 500 μM solution. Aliquot and store remaining solution in aliquots at -80°C. Add 10 μl GC376 (500 μM) to the wells labeled “Inhibitor Control”.
6) Prepare the inhibitor solution.
The final concentration of DMSO in the assay should not exceed 1%. If the inhibitor compound is dissolved in DMSO, make a 100-fold higher concentration of the compound than the highest […]
concentration you want to test in DMSO. Then make a 20-fold dilution in 1X assay buffer (at this step the compound concentration is 5-fold higher than the final concentration).
If the inhibitor compound is dissolved in water, make a solution of the compound 5-fold higher than the final concentration in 3CL Protease assay buffer (with 1 mM DTT). For example, diluting 50 μg GC376 in 200 μl water (step 5) creates a 500 μM solution. Adding 10 ul to the assay (final volume 50 μl) results in a 100 μM final concentration.
7) Add 10 μl inhibitor to each well designated “Test Sample”. Add 10 μl 1X assay buffer or 5% DMSO (depending on which inhibitor solution is used) to “Blank” and “Positive Control” wells.
8) Preincubate enzyme with the inhibitor for 30 min at room temperature with slow shaking.
9) Dilute 5 mM 3CL Protease substrate 1:20 in assay buffer with DTT, to make a 250 μM solution.
Dilute only enough as is required for the assay.
10) Start reaction by adding 10 μl of the substrate solution to each well (Final concentration of the 3CL Protease substrate in a 50 μl reaction is 50 μM).
11) Incubate at room temperature for overnight. Seal the plate with the plate sealer. Measure the fluorescence intensity in a microtiter plate-reading fluorimeter capable of excitation at a wavelength 360 nm and detection of emission at a wavelength 460 nm. The fluorescence intensity can also be measured kinetically. “Blank” value is subtracted from all other values.
SI 5. Molecular dynamics (MD) simulations.
The MD simulations were carried out using Desmond simulation package of Schrödinger LLC.2 The NPT ensemble with the temperature 300 K and a pressure 1 bar was applied in all runs. The simulation length was 100 ns with a relaxation time 1 ps for the ligands. […]

[2] = design: method as in PMID 34641339; details: single-dose administration; cited from earlier work
SARS-CoV-2 = system: SARS-CoV-2; design: method as in PMID 33352056; details: in vitro assessment; read-out: EC50 against SARS-CoV-2; cited from earlier work
[3] = Severe acute respiratory syndrome coronavirus 2, Vero C1008, read-out: IC50 (anti-SARS-CoV-2 activity)
[4] = Severe acute respiratory syndrome coronavirus 2, Vero C1008, Vero E6 cells, hCoV-19/Egypt/NRC-03/2020, read-out: IC50 (anti-SARS-CoV-2 activity)
[5] = 3CL Protease Assay Kit, read-out: SARS-CoV-2 Mpro IC50 (converted)
[6] = values used for multiple linear regression, read-out: IC50 (Table 4, regression model; SARS-CoV-2 Mpro values) (converted)

SMILES	IC50 [1, 3]	IC50 [1, 4] [µg/mL]	CC50 at 24 h (MTT cytotoxicity assay) [µg/mL]	IC50 (SARS-CoV-2 Mpro; [5]) [µM]	selectivity index (SI = CC50/IC50) ([1]; Vero E6 cells)	IC50 (SARS-CoV-2 Mpro; [6]) [µM]	biological t1/2 [2] [h]	mean Cmax [2] [ng/mL]	EC50 (SARS-CoV-2) [µM]
Cc1ccc(C(=O)Nc2ncc([N+](=O)[O-])s2)cc1 [Compound 3a, 4-Methyl-N-(5-nitrothiazol-2-yl)benzamide]	5230 µM	1380	1470 (≈ 5.57 mM)	17.7					
O=C(CNC(=O)OCc1ccccc1)Nc1ncc([N+](=O)[O-])s1 [Compound 3b, Benzyl (2-((5-nitrothiazol-2-yl)amino)-2-oxoethyl)carbamate]	519 µM	175	1850 (≈ 5.51 mM)	15.2	10				
C[C@H](NC(=O)OCc1ccccc1)C(=O)Nc1ncc([N+](=O)[O-])s1 [Compound 3c, Benzyl (S)-(1-((5-nitrothiazol-2-yl)amino)-1-oxopropan-2-yl)carbamate]	1990 µM	698	2120 (≈ 6.05 mM)		3	34			
CC(C)[C@H](NC(=O)OCc1ccccc1)C(=O)Nc1ncc([N+](=O)[O-])s1 [Compound 3d, Benzyl (S)-(3-methyl-1-((5-nitrothiazol-2-yl)amino)-1-oxobutan-2-yl)carbamate]	> 1200 µg/mL		1200 (≈ 3.18 mM)			235			
O=C(N[C@@H](Cc1ccccc1)C(=O)Nc1ncc([N+](=O)[O-])s1)OCc1ccccc1 [Compound 3e, Benzyl (S)-(1-((5-nitrothiazol-2-yl)amino)-1-oxo-3-phenylpropan-2-yl)carbamate]	3010 µM	1280	2040 (≈ 4.78 mM)			38.9			
O=C(Nc1ncc([N+](=O)[O-])s1)[C@@H]1CCCN1C(=O)OCc1ccccc1 [Compound 3f, Benzyl (S)-2-((5-nitrothiazol-2-yl)carbamoyl)pyrrolidine-1-carboxylate]	3330 µM	1250	2800 (≈ 7.44 mM)			59.4			
O=C(N[C@@H](Cc1c[nH]c2ccccc12)C(=O)Nc1ncc([N+](=O)[O-])s1)OCc1ccccc1 [Compound 3g, Benzyl (S)-(3-(1H-indol-3-yl)-1-((5-nitrothiazol-2-yl)amino)-1-oxopropan-2-yl)carbamate]	> 1630 µg/mL		1630 (≈ 3.49 mM)			110			
CC(C)C(=O)OC[C@H]1O[C@@H](n2ccc(NO)nc2=O)[C@H](O)[C@@H]1O [molnupiravir]							7	13.2	
CC(=O)Oc1ccccc1C(=O)Nc1ncc([N+](=O)[O-])s1 [nitazoxanide]									2.12
